Test results from patent US12129490B2, “Methods for generating hepatocytes and cholangiocytes from pluripotent stem cells” (UNIVERSITY HEALTH NETWORK, priority 2018, dated 2024).

Legend:
hESC-derived cells = assay: Albumin secretion, ELISA; format: cell-based, human
Experimental: The levels of albumin (ALB) secreted by hESC-derived monolayer and aggregate populations, as well as by HepG2 cells, Huh7 cells and cryopreserved hepatocytes (PH, lot OSI) was detected using an ELISA assay. […] Only low levels were detected in HepG2, Huh7 and PH cells. By contrast, the capacity to take up indocyanine green (ICG), a characteristic of adult hepatocytes (Stieger et al., 2012) was enhanced by cAMP signaling. ICG uptake and release by cAMP-treated and non-treated was measured in day 44 aggregates.

hepatic aggregates = assay: Indocyanine green (ICG) uptake of hepatic aggregates; format: cell-based, human; details: day 44 aggregates
Experimental: The indocyanine green (ICG, Sigma) solution was added to the cells at final concentration of 1 mg/ml ICG in HCM (Lonza). The cells were incubated at 37° C. for 1 hour, washed 3 times with PBS, and then examined with an inverted Microscope (Leica).

CYP2B6 = target: T1, CYP2B6 (Homo sapiens, UniProt P20813); assay: CYP2B6 activity, hydroxylation of bupropion by HPLC; format: in vitro ADME; details: 8-Br-cAMP-treated cells versus primary hepatocytes
T1 sequence (P20813 1-491): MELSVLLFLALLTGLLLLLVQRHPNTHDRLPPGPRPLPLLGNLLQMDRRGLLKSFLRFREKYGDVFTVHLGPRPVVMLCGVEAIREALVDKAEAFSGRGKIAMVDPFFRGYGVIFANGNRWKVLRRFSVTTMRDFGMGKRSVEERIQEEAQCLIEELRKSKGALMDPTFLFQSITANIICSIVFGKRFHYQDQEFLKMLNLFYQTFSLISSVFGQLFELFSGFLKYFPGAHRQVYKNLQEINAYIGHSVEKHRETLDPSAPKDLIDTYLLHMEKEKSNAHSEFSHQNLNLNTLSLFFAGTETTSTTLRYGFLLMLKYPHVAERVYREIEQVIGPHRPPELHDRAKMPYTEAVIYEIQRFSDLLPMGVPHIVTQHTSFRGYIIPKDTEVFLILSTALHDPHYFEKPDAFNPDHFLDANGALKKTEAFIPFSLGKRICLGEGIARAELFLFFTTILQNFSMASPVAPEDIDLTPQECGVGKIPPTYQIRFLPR
Experimental: Formation of the metabolite O-hydroxy-bupropion from bupropion was measured by HPLC. Activity is presented per 50,000 cells, (n=3).

[1] = test system: UDP-glucuronosyltransferase (UGT); assay: Total UGT activity, 4-MU glucuronidation; format: in vitro ADME, human; details: cAMP-treated aggregates versus primary cultured hepatocytes
CYP1A2 = target: T2, CYP1A2 (Homo sapiens, UniProt P05177); assay: CYP1A2 activity, phenacetin metabolism by HPLC; details: 8-Br-cAMP-treated cells versus primary cultured hepatocytes
T2 sequence (P05177 1-516): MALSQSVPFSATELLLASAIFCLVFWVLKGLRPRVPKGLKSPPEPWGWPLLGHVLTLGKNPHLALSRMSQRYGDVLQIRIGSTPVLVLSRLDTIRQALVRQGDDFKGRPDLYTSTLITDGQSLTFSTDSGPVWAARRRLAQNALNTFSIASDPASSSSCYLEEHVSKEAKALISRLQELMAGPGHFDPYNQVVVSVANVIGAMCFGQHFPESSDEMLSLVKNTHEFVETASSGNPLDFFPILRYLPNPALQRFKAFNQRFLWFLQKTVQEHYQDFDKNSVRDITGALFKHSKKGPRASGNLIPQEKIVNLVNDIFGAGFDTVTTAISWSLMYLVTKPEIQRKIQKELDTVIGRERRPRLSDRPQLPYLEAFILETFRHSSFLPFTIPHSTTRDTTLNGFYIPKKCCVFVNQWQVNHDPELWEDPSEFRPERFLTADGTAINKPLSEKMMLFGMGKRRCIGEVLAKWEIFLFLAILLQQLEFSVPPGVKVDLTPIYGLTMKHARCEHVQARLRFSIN

O-deethylation of phenacetin (CYP1A2 activity) (CYP1A2): as high as primary cultured hepatocytes
SMILES: Nc1ncnc2c1nc(Br)n2[C@@H]1O[C@@H]2COP(=O)(O)O[C@H]2[C@H]1O [8-Br-cAMP, 8-bromoadenosine-3′5″-cyclic monophosphate]
albumin secretion (hESC-derived cells): not impacted
ICG staining of aggregates (hepatic aggregates): almost all treated aggregates stained with ICG
CYP2B6 activity, hydroxylation of bupropion (CYP2B6): comparable to those found in primary hepatocytes
UGT activity [1]: higher than that of primary cultured hepatocytes
